Entries after “also recorded” stand apart in the source; their conditions may differ.
Key:
[1] = biological target: T1, purified recombinant human BACE1 (Homo sapiens, UniProt P56817); experiment: In vitro fluorometric BACE1 activity assay; type: biochemical; conditions: increasing amounts of compound, 2 hours
T1 construct: purchased R&D systems
Experimental: A fluorometric β-secretase activity kit was used for detecting BACE1 activity in vitro. Reaction was done according to the manufacturer's instructions with slight modifications. Briefly, 1 μg of purified recombinant human BACE1 (R&D systems) was resuspended in 10 μl of 1× cell extraction buffer (R&D systems) and incubated with EDANS/DABCYL-[…] substrate peptide in the absence or presence of indicated account of CP-113,818 for 2 hours. Released EDANS fluorescence was measured by a fluorescent plate reader (Analyst AD, LJL Biosystems). As a negative control, a specific β-secretase inhibitor, GL-189 (Calbiochem) was added to one of the samples with the indicated concentration.

[2] = system: hAPP mice and non-transgenic littermates; experiment: Morris water maze spatial learning and memory test; type: in vivo, mouse
Experimental: 53 days after the treatment, mice were trained in the Morris water maze (MWM) spatial navigation task in which a mouse swims to find a hidden platform, using visual cues. The task is based on the principle that rodents are highly motivated to escape from a water environment by the quickest, most direct route. This task is carried out in a circular pool (1 meter diameter) filled with water (22±1° C.) and virtually divided into four quadrants. A platform is placed in the southwest quadrant 1 cm beneath the surface of the water. The computer randomly changes the starting positions of an animal. On four consecutive days mice attend three trials per day (each lasting for a maximum of 60 seconds). Escape latency (time to find the hidden platform), and length of swimming path were measured. Significant differences of the behavioral results were calculated with the Mann Whitney U-test.
To analyze the effect of CP-113,818 treatment on cognitive function of hAPP mice, we performed Morris water maze spatial learning and memory tests on the animals. Since hAPP mice develop cognitive deficits starting at 6 months of age, the 6.5 month-old animals in our study were only expected to show slight deterioration due to Aβ accumulation, when compared to non-transgenic littermates. […] Clear impairment of cognitive function due to Aβ accumulation was only observed in female transgenic mice. […] This could have been due to a ceiling effect owing to maximum swimming speed. Compared to placebo, the improvement between day 1 and day 3 due to CP-113,818 treatment was significant (p<0.033). […] Although testing of more mice at an older age will be needed to further assess the effect of decreased amyloid pathology on spatial learning and memory, improved performance in a Morris water maze test correlated well with the highly significant decrease of overall plaque load and Aβ in CP-113,818-treated female animals.

[3] = system: γ-secretase complex components and substrates, BACE1, ApoE; experiment: Western blot of γ-secretase components and substrates, BACE1 and ApoE in non-transgenic littermates; type: in vivo, mouse
Experimental: For Western blot analyses, frozen hemispheres of non-transgenic littermates were homogenized in TBS buffer containing 5 mM EDTA, 1 mM 1,10-phenanthroline (ICN Biomedicals), 20 μM ALLN (BioMol) and a protease inhibitor mixture (Roche). Homogenates were centrifuged at 100000 g for 1 hour at +4° C. The supernatants were used for analyses of secreted APP forms and ApoE, while the pellets extracted with the homogenization buffer containing 1% Triton X-100 and 0.2% SDS. 120 μg of total protein were resolved on 4-12% or 12% NuPAGE Bis-Tris gels (Invitrogen) under reducing conditions, and Western blots were performed as described previously (Puglielli et al., 2001). For analysis of Notch-ICD (NICD), 250 μg of total protein was immunoprecipitated with an NICD-specific antibody (cleavage site (Val1744)-specific; Cell Signaling Technology) according to manufacturer's recommendations. Antibodies used for Western blots were R1736 (specific for sAPP-α; a gift from Dr. D. J. Selkoe, Brigham and Women's Hospital, Boston, Mass.), Abl4 (PS 1-NTF; a gift from Dr. S. E. Gandy, Thomas Jefferson University, Philadelphia, Pa.), Pen2 (a gift from Dr. S. S. Sisodia, University of Chicago, Chicago, Ill.), N-Cadherin (C32, C-terminal; BD Transduction Laboratories), ApoE (Santa Cruz Biotechnology), β-tubulin (Sigma), BACE1 and Nicastrin (Affinity BioReagents). Rbt×APP (CTF), 22C11 (APP-NTF) and Rbt×PSI (PS 1-CTF) were from Chemicon International. BACE stainings (N-terminal; Affinity BioReagents) were confirmed with two additional antibodies; Ms×BACE1 (Chemicon International) and BACE (C-terminal; Affinity BioReagents). Densitometric analyses were performed using the QuantityOne software package (Bio-Rad). Statistical significance was determined by Student's t test. For Western blot analyses shown in supplemental figures, neutralized formic acid fractions (approximately 100 μg of total protein) were precipitated by adding 50% trichloroacetic acid to 15.5% final concentration. After 30 min incubation and centrifugation at 4° C., the pellets were solubilized by adding 10 μl of 2M Tris base and 10 μl of 4×LDS-PAGE loading buffer (NuPage, Invitrogen). Before loading, the samples were incubated for 30 min at 37° C., freeze-thawed once and boiled. Western blot analysis was performed as described above.
Our previous cell-based studies have shown that ACAT inhibition reduces Aβ generation and alters APP processing by all three secretases (Puglielli et al., 2001). To determine whether CP-113,818 treatment modified brain APP processing in hAPP mice, we initially resolved formic acid-extracted brain proteins by SDS-PAGE to detect APP and its proteolytic derivatives. […] However, levels of the secreted cleavage products of both α- and β-secretases (sAPP) were reduced by treatment with the ACAT inhibitor albeit not nearly as dramatically as Aβ (FIG. 9). Inhibition of sAPP production in the absence of a change in CTFs was somewhat surprising, and possibly an artifact caused by formic acid extraction. Because tissue from treated hAPP mice had been extracted with formic acid or fixed for histological studies, we looked at levels of APP-CTFs in total brain lysates from the non-transgenic littermates used in the Morris water maze tests. Using non-transgenic animals for these experiments also afforded an assessment of the effects of CP-113,818 on endogenous APP processing. CP-113,818 reduced liver cholesterol/cholesteryl-esters and serum cholesterol of non-transgenic littermates similarly to the transgenic animals shown in FIG. 1C (data not shown). Endogenous mouse APP-CTF levels in brain lysates from CP-113,818-treated animals decreased by 44% when compared to placebo-treated mice (n=8, p<0.005, values normalized to APP holoprotein levels; FIG. 10A, B). We could not resolve C99 and C83 from these samples due to smearing in the low molecular weight range because of high protein load (FIG. 10A). […]

[4] = rat, in vivo; cited from earlier work

T1 sequence (P56817 46-501): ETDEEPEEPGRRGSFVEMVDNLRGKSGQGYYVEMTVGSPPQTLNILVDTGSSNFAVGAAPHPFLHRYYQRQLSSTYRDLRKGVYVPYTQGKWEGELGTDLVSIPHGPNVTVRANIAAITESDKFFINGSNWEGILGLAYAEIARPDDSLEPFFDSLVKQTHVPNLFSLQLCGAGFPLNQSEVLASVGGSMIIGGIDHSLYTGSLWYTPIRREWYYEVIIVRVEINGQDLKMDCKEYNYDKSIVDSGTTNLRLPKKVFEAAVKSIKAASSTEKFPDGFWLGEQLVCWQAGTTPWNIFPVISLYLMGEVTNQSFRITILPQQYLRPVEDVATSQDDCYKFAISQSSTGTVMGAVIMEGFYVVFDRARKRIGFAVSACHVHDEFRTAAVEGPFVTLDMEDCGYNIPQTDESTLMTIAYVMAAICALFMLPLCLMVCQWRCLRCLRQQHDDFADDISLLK

CCCCCCCC[C@H](SCCCCCC)C(=O)Nc1c(SC)cc(C)nc1SC [CP-113,818]
effect on BACE1 activity in vitro [1]: unaffected; also recorded: no direct effect | spatial learning of all hAPP mice taken together ([2]; all hAPP mice regardless of gender): trend toward acquiring the task quickly | spatial learning performance of female hAPP mice (swimming path, escape latency) ([2]; female hAPP mice, days 54-57 of treatment): reversed the observed impairment; also recorded: improved this performance | spatial learning performance of male hAPP mice ([2]; male hAPP mice): did not affect the performance | swimming path of male non-transgenic animals ([2]; male non-transgenic mice, day four, not escape latency): performed better than the placebo-treated cohort; also recorded: slightly improved | spatial performance of non-transgenic female mice ([2]; non-transgenic female mice): did not affect spatial performance | Notch intracellular domain (NICD) levels ([3]; immunoprecipitated from non-transgenic mouse brain lysates): statistically unchanged; also recorded: remained unchanged | BACE protein levels ([3]; non-transgenic brain lysates): unchanged; also recorded: did not alter expression levels | levels of N-cadherin-CTF1 ([3]; non-transgenic brain lysates): unaffected; also recorded: remained unchanged | levels of PS1 N- and C-terminal fragments, nicastrin, and pen-2 ([3]; non-transgenic brain lysates): did not detect significant changes | nicastrin maturation / maturation of γ-secretase complex ([3]; non-transgenic brain lysates): unaffected; also recorded: did not alter maturation | expression of ApoE ([3]; non-transgenic littermates, soluble TBS fraction): unchanged; also recorded: did not alter expression levels | tolerated dose [4]: 150 mg/kg per day
